{"source": "patent US12016899B2", "about": "“Compositions comprising Sel1-derived peptides and methods of treatment/prevention of excess oxalate levels and associated conditions/diseases therewith” (The University of Chicago, priority 2018, dated 2024)", "molecules": {"B1": {"name": "318: Sel1 protein 318 (52 kDa) of Oxalobacter formigenes (protein)", "chain": "MKRRVLYGVLFAVLAGCSAGALASVSGLSDGLAQLERRQFESAYATLMPEAEKGNPRAALEVGKLLLTGRGVAKDEAAAVKWLLVAADSGNRDAQYMLGAMSVEGIGLPKDSQVALTWLSKAAAQGDARAKTALGILMQSAGPGSQHTEQAARWFERAAASGEPEAQRRWALMLASGRGVAKNEGEALKWFKKAAVAGDVEAQRNLGIMLSTGKGVTGGKPDFAEAARWYGLAAKKGDAKAQYGLGILYAKGQGVAPDQEKALILYRMAATQGLATAEYAVGLAYAYGRGTAQNDVKAADWFEAAAQQGVVRAQYNLALMLEAGRGRPVDTVAASKWFLMAAEKGLREAQYNMGYHYAEGKGVPRDQGKAVFWYEKAAAAGDVKAQYNLGMLYLNGVNGKADDEKAAFFYRMAAGAGYGPAMYRLAVLYEEGRGVKQSYQLAGEWYERADLAAKVKIDEAMKKNPHPFVQRTLQVPDDLNQSSDKLAGH"}, "B2": {"name": "301: Sel1 protein 301 (54 kDa) of Oxalobacter formigenes (protein)", "chain": "MSSVIADSQQPAVSEENANKIILDEEKAVIQCNERYKTENDEKGDEETVSWCRKAAKSGNAEAQYLFGMLVYDGRGVQQDNCVAMLWWMKAAEQNHAKALVMLGNLHRKGQCIAENYPKAIAYWKRAAVQNNVWAYHNLGTAYYDGIGVDKNPHEAVRWWKKAAELGFPESQNNLGALYNDGNGVDRDYQEAVFWYRKSALQGDELGQYNLGVAYYYGRGIKKDFSEAVSWYKKSAEQDYAQAQHNLGVTYYEGEGIKKDYAKAVYWWKKAAEQGIPQSQYNLGIAYEEGWGAEKNPENAVFWYRKAAEQGHADAQNRLGIAYRYGTGVRKNPALSVKWLEKAAKQGLARAQFNLGKTFYIGAGINKNTDKAVYWFIKAANQGFTEAQAYIGMIYFKGKYVAKNEKKGFYWLKKAAEKDSAKAQAFLGALYIAGNEVKPNIKEGVALTKKAALQGNYEAQTLLGFCYENGLEVKKDLIAAYALYLSASPHFDFAEKARLDLERKLSEQEIAKAISVNTAKLFE"}}, "key": {"[1]": {"tested_on": "human intestinal Caco2-BBE (C2) cells", "assay": "14C-oxalate influx (oxalate transport) by Caco2-BBE (C2) cells", "format": "cell-based", "conditions": "for effect of trace element added to P8 or P9 on oxalate transport, in words: C2 cells, versus peptide alone", "procedure": "Toward this end, Of culture conditioned medium (CM) was prepared as recently reported (Ref. 4; herein incorporated by reference in its entirety) and human intestinal Caco2-BBE (C2) cells were used to evaluate the effects of Of CM on intestinal oxalate transport. Apical oxalate uptake by C2 cells was measured by imposing an outward Cl gradient by removing extracellular Cl [Cli>Clo] (Refs. 3, 4, 14; incorporated by reference in their entireties) and measuring DIDS (anion exchange inhibitor)-sensitive influx of 14C-oxalate in exchange for intracellular Cl [i.e. apical Cl-oxalate exchange activity, ≥49% of which is mediated by the oxalate transporter SLC26A6 (A6) in C2 cells (4, 12))].\nThe inventors sought to identify trace elements to better stimulate oxalate transport by facilitating the binding of P8 and/or P9 to a cell surface receptor. The inventors analyzed combinations of P8 and P9 alone or with aluminum, zinc, or magnesium by measuring C14 oxalate transport in C2 cells."}, "[2]": {"tested_on": "human sigmoid colon organoid", "assay": "oxalate transport by human sigmoid colon organoid", "format": "cell-based", "procedure": "(§1) Although the transformed C2 cells resemble the native epithelium, they don't fully recapitulate the in vivo physiological responses. Primary stem-cell derived intestinal organoids (Orgs) were recently established as an ex vivo model of the intestinal epithelium, and they mimic the full spectrum of physiological responses in vivo. Therefore, experiments were conducted during development of embodiments herein to confirm the C2 findings in colonic organoids.\n(§2) To recapitulate the findings in vivo, primary stem-cell derived intestinal organoids (Org) were used which have been established as an ex vivo model of the intestinal epithelium with a full spectrum of physiological responses found in vivo (Ref. 35; incorporated by reference in its entirety). A human sigmoid colonic Org (from a healthy individual) was grown and maintained as previously reported (Ref. 34; incorporated by reference in its entirety). Org cells were plated onto collagen-coated transwell filters and formed monolayers. Monolayer confluency and differentiation was confirmed by transepithelial electrical resistance measurements (Ref. 34; incorporated by reference in its entirety)."}, "human ileum organoid": {"tested_on": "human ileum organoid", "assay": "oxalate transport by human ileum organoid", "format": "cell-based", "conditions": "500 μM DIDS; ileum Org"}, "[3]": {"tested_on": "human distal colon organoid", "assay": "oxalate transport by human distal colon organoid", "format": "cell-based", "procedure": "as §1, §2"}, "[4]": {"tested_on": "human intestinal Caco2-BBE (C2) cells", "conditions": "cited from earlier work; for stimulation of oxalate transport by cells (Sel1 proteins), in words: PCT/US18/14494"}}, "note": "Entries after “also recorded” stand apart in the source; their conditions may differ. Primed or numbered codes have the meaning given here. Where no end group is shown, it is not given here. [ ]: non-standard residue; d: D form. PEG6′ = Peg: PEG6 in place of glycine"}
{"molecule": "ARAQFNLGKTFYIGAGINKNTDKAVYWFIKAANQG [Peptide P5]", "values": [{"measurement": "stimulation of oxalate transport (14C-oxalate influx) by C2 cells, in words", "setting": "[1]; Caco2-BBE cells", "value": "no effects"}]}
{"molecule": "O=S(=O)(O)c1cc(N=C=S)ccc1C=Cc1ccc(N=C=S)cc1S(=O)(=O)O", "note": "[DIDS, reference compound]", "values": [{"measurement": "inhibition of 14C-oxalate influx", "setting": "[2]; 100 μM DIDS, sigmoid colonic Org", "value": "~70", "unit": "%"}, {"measurement": "inhibition of oxalate transport", "setting": "human ileum organoid", "value": "~80", "unit": "%"}]}
{"molecule": "[Al]", "note": "[aluminum]", "values": [{"measurement": "effect of trace element added to P8 or P9 on oxalate transport, in words", "setting": "[1]", "value": "did not result in increased oxalate transport"}]}
{"molecule": "Ac-AKAQYGLGILYAKGQGVAPDQEKALILYRMAATQG [Peptide P9-Ac]", "values": [{"measurement": "stimulation of oxalate transport by sigmoid colon organoid, in words", "setting": "[2]", "value": "significantly stimulate"}, {"measurement": "stimulation of oxalate transport by distal colon organoid, in words", "setting": "[3]", "value": "significantly stimulate"}, {"measurement": "stimulation of oxalate transport (14C-oxalate influx) by C2 cells, in words", "setting": "[1]; Caco2-BBE cells, listed as P9 with N-terminal acetylation", "value": "significantly stimulate"}]}
{"molecule": "ESQNNLGALYNDGNGVDRDYQEAVFWYRKSALQGD [Peptide P6]", "values": [{"measurement": "stimulation of oxalate transport (14C-oxalate influx) by C2 cells, in words", "setting": "[1]; Caco2-BBE cells", "value": "no effects"}]}
{"molecule": "O=S(=O)(NCCNC/C=C/c1ccc(Br)cc1)c1cccc2cnccc12", "note": "[Peptide H89, H89, reference compound]", "values": [{"measurement": "effect of pretreatment on CM-induced oxalate transport", "setting": "[4]; PKA inhibitor pretreatment, Ref. 4", "value": "completely blocked"}]}
{"molecule": "QSQYNLGIAYEEGWGAEKNPENAVFWYRKAAEQGH [Peptide P4]", "values": [{"measurement": "stimulation of oxalate transport (14C-oxalate influx) by C2 cells", "setting": "[1]; Caco2-BBE cells", "value": 1.5, "unit": "fold"}]}
{"molecule": "AKAQY(Peg)L(Peg)ILYAK(Peg)Q(Peg)VAPDQEKALILYRMAATQ(Peg) (AKAQY[PEG6′]L[PEG6′]ILYAK[PEG6′]Q[PEG6′]VAPDQEKALILYRMAATQ[PEG6′]) [Peptide P9-Peg]", "values": [{"measurement": "stimulation of oxalate transport (14C-oxalate influx) by C2 cells, in words", "setting": "[1]; Caco2-BBE cells, listed as P9 with all glycines replaced with PEG6", "value": "similarly stimulated; also recorded: significantly stimulate"}]}
{"molecule": "DAQYMLGAMSVEGIGLPKDSQVALTWLSKAAAQGD-Am (DAQYMLGAMSVEGIGLPKDSQVALTWLSKAAAQGD-NH2) [Peptide P8-Am]", "values": [{"measurement": "stimulation of oxalate transport (14C-oxalate influx) by C2 cells, in words", "setting": "[1]; Caco2-BBE cells, listed as P8 with C-terminal amidation", "value": "significantly stimulate"}]}
{"molecule": "AKAQYGLGILYAKGQ(d-alanine)VAPDQEKALILYRMAATQG (AKAQYGLGILYAKGQ[dA]VAPDQEKALILYRMAATQG) [Peptide P9-Daa]", "values": [{"measurement": "stimulation of oxalate transport by sigmoid colon organoid, in words", "setting": "[2]", "value": "significantly stimulate"}, {"measurement": "stimulation of oxalate transport by distal colon organoid, in words", "setting": "[3]", "value": "significantly stimulate"}, {"measurement": "stimulation of oxalate transport (14C-oxalate influx) by C2 cells, in words", "setting": "[1]; Caco2-BBE cells, listed as P9 with G16 replaced with D-alanine", "value": "similarly stimulated; also recorded: significantly stimulate"}]}
{"molecule": "Ac-DAQYMLGAMSVEGIGLPKDSQVALTWLSKAAAQGD [Peptide P8-Ac]", "values": [{"measurement": "stimulation of oxalate transport (14C-oxalate influx) by C2 cells, in words", "setting": "[1]; Caco2-BBE cells, listed as P8 with N-terminal acetylation", "value": "significantly stimulate"}]}
{"molecule": "DAQYMLGAMSVEGI(d-alanine)LPKDSQVALTWLSKAAAQGD (DAQYMLGAMSVEGI[dA]LPKDSQVALTWLSKAAAQGD) [Peptide P8-Daa]", "values": [{"measurement": "stimulation of oxalate transport (14C-oxalate influx) by C2 cells, in words", "setting": "[1]; Caco2-BBE cells, listed as P8 with G15 replaced with D-alanine", "value": "similarly stimulated; also recorded: significantly stimulate"}]}
{"molecule": "DAQYMLA(Peg)MSVE(Peg)I(Peg)LPKDSQVALTWLSKAAAQ(Peg)D (DAQYMLA[PEG6′]MSVE[PEG6′]I[PEG6′]LPKDSQVALTWLSKAAAQ[PEG6′]D) [Peptide P8-Peg]", "values": [{"measurement": "stimulation of oxalate transport (14C-oxalate influx) by C2 cells, in words", "setting": "[1]; Caco2-BBE cells, listed as P8 with all glycines replaced with PEG6", "value": "similarly stimulated; also recorded: significantly stimulate"}]}
{"molecule": "[Cl-].[Cl-].[Zn+2]", "note": "[zinc chloride]", "values": [{"measurement": "effect of trace element added to P8 or P9 on oxalate transport, in words", "setting": "[1]", "value": "not"}]}
{"molecule": "AKAQYGLGILYAKGQGVAPDQEKALILYRMAATQG-Am (AKAQYGLGILYAKGQGVAPDQEKALILYRMAATQG-NH2) [Peptide P9-Am]", "values": [{"measurement": "stimulation of oxalate transport by sigmoid colon organoid, in words", "setting": "[2]", "value": "significantly stimulate"}, {"measurement": "stimulation of oxalate transport by distal colon organoid, in words", "setting": "[3]", "value": "significantly stimulate"}, {"measurement": "stimulation of oxalate transport (14C-oxalate influx) by C2 cells, in words", "setting": "[1]; Caco2-BBE cells, listed as P9 with C-terminal amidation", "value": "significantly stimulate"}]}
{"molecule": "B1", "values": [{"measurement": "stimulation of oxalate transport by cells (Sel1 proteins), in words", "setting": "[4]", "value": "significantly stimulating; also recorded: most potent stimulators"}]}
{"molecule": "B2", "values": [{"measurement": "stimulation of oxalate transport by cells (Sel1 proteins), in words", "setting": "[4]", "value": "significantly stimulating; also recorded: most potent stimulators"}]}
